Measurements: US9029546B2, “Pyrazolopyridine kinase inhibitors” (Vertex Pharmaceuticals Incorporated, priority 2008, dated 2015)
pKi: −log10 of the molar value.

Assays:
PKC theta kinase = PKC theta kinase (Homo sapiens, UniProt Q04759); assay: PKC theta coupled-enzyme kinase assay (NADH consumption); assay type: biochemical; conditions: 240 μM ATP, 30° C.
Procedure: (§1) An assay buffer solution was prepared which consisted of 100 mM HEPES (pH 7.5), 10 mM MgCl2, 25 mM NaCl, 0.1 mM EDTA and 0.01% Brij. An enzyme buffer containing reagents to final assay concentrations of 0.00001% Triton X-100, 200 μg/mL Phosphatidylserine, 20 μg/mL Diacylglycerol, 360 μM NADH, 3 mM phosphoenolpyruvate, 70 μg/mL pyruvate kinase, 24 μg/mL lactate dehydrogenase, 2 mM DTT, 100 μM substrate peptide (ERMRPRKRQGSVRRRV (SEQ ID NO: 1)) and 18 nM PKC theta kinase was prepared in assay buffer. To 60 μL of this enzyme buffer, in a 384 well plate, was added 2 μL of VRT stock solution in DMSO. The mixture was allowed to equilibrate for 10 mins at 30° C. The enzyme reaction was initiated by the addition of 5 μL stock ATP solution prepared in assay buffer to a final assay concentration of 240 μM. Initial rate data was determined from the rate of change of absorbance at 340 nm (corresponding to stoichiometric consumption of NADH) using a Molecular Devices Spectramax plate reader (Sunnyvale, Calif.) over 15 mins at 30° C. For each Ki determination 12 data points covering the VRT concentration range of 0-20 μM were obtained in duplicate (DMSO stocks were prepared from an initial 10 mM VRT stock with subsequent 1:2 serial dilutions). Ki values were calculated from initial rate data by non-linear regression using the Prism software package (Prism 4.0a, Graphpad Software, San Diego, Calif.).

PKC Delta = PKC Delta (Homo sapiens, UniProt Q05655); assay: PKC delta coupled-enzyme kinase assay (NADH consumption); assay type: biochemical; conditions: 240 μM ATP, 30° C.
Procedure: [The source words this procedure for another target and reports this target under the same test.] as §1

Chain of PKC theta kinase (Q04759 whole entry): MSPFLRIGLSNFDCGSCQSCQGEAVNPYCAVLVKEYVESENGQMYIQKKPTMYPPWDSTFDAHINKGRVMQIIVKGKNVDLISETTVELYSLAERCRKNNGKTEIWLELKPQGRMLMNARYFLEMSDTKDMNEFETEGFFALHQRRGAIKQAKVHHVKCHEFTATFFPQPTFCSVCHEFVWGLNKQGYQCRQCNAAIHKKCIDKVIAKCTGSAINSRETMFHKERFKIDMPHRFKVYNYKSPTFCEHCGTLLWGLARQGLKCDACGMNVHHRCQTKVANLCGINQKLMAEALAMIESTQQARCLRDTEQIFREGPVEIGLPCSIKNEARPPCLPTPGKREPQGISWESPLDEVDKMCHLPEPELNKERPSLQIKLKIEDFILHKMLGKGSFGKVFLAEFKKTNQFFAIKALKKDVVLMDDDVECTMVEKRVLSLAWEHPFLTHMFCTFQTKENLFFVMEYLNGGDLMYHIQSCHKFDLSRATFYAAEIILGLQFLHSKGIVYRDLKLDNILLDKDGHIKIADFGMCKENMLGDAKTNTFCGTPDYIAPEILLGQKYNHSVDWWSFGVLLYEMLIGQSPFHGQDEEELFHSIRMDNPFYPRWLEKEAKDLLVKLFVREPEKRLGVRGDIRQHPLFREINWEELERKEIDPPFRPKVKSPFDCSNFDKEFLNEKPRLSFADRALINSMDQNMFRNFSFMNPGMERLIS
Chain of PKC Delta (Q05655 whole entry): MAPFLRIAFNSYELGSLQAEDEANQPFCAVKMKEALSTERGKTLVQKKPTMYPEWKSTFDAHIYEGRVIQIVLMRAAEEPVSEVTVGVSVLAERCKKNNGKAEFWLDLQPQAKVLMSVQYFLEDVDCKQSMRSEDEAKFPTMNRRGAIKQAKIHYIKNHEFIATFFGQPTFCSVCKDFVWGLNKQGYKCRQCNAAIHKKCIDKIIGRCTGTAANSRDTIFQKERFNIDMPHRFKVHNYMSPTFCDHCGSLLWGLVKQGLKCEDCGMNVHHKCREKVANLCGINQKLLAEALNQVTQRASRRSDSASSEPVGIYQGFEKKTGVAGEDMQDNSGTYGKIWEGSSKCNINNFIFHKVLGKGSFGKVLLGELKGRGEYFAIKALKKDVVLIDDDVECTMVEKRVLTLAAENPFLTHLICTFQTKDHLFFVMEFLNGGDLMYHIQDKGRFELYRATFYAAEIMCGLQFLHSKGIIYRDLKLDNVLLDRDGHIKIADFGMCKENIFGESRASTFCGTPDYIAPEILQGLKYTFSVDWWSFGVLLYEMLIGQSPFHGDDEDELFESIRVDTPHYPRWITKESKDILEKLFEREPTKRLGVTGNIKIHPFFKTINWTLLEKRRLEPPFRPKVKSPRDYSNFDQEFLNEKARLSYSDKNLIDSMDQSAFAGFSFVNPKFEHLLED

Row | Structure (SMILES) | pKi (PKC theta kinase) | pKi (PKC Delta)
1 | CC(C)(N)CNc1cccc(-c2n[nH]c3ncccc23)n1 [Compound 1, N1-(6-(1H-pyrazolo[3,4-b]pyridin-3-yl)pyridin-2-yl)-2-methylpropane-1,2-diamine] | > 7.30 | > 7.30
2 | NCCCNc1cccc(-c2n[nH]c3ncccc23)n1 [Compound 2] | > 6.30 | > 6.30
3 | NC1CCCCC1Nc1cccc(-c2n[nH]c3ncccc23)n1 (centres unmarked) [Compound 3] | > 6.30 | > 6.30
4 | NCC1CCC(CNc2cccc(-c3n[nH]c4ncccc34)n2)CC1 (centres unmarked) [Compound 4] | > 6.30 | > 6.30
5 | CNCCN(C)c1cccc(-c2n[nH]c3ncccc23)n1 [Compound 5] | > 5.55 | > 5.55
6 | c1cc(NC2CCNC2)nc(-c2n[nH]c3ncccc23)c1 (centres unmarked) [Compound 6] | > 6.30 | > 6.30
7 | O[C@H](CNc1cccc(-c2n[nH]c3ncccc23)n1)c1ccccc1 [Compound 7] | < 6.15 | < 6.15
8 | OCCNc1cccc(-c2n[nH]c3ncccc23)n1 [Compound 8] | < 6.15 | < 6.15
9 | NCC(CNc1cccc(-c2n[nH]c3ncccc23)n1)c1ccccc1 (centres unmarked) [Compound 9] | > 7.30 | > 7.30
10 | CC(C)(CN)CNc1cccc(-c2n[nH]c3ncccc23)n1 [Compound 10] | > 6.30 | > 6.30
11 | N[C@H](CNc1cccc(-c2n[nH]c3ncccc23)n1)c1ccccc1 [Compound 11] | > 6.30 | > 6.30
12 | c1cc(NCC2CCCNC2)nc(-c2n[nH]c3ncccc23)c1 (centres unmarked) [Compound 12] | > 6.30 | > 6.30
13 | NC1CCC(CNc2cccc(-c3n[nH]c4ncccc34)n2)CC1 (centres unmarked) [Compound 13, N-((4-aminocyclohexyl)methyl)-6-(1H-pyrazolo[3,4-b]pyridin-3-yl)pyridin-2-amine] | > 6.30 | > 6.30
14 | c1cc(NCC2CCNCC2)nc(-c2n[nH]c3ncccc23)c1 [Compound 14] | > 6.30 | > 6.30
15 | CC(C)CC(O)CNc1ccc(C(F)(F)F)c(-c2n[nH]c3ncccc23)n1 (centres unmarked) [Compound 15] | < 6.15 | < 6.15
16 | CC(C)C[C@H](N)CNc1cccc(-c2n[nH]c3ncccc23)n1 [Compound 16] | > 6.30 | > 6.30
17 | CC(C)C[C@@H](CN)Nc1cccc(-c2n[nH]c3ncccc23)n1 [Compound 17] | < 6.15 | < 6.15
18 | c1cc(NC2CCNCC2)nc(-c2n[nH]c3ncccc23)c1 [Compound 18] | > 7.30 | > 7.30
19 | O[C@H](CNc1ccc(C(F)(F)F)c(-c2n[nH]c3ncccc23)n1)c1ccccc1 [Compound 19] | > 6.30 | > 6.30
20 | c1cc(NCC2CCCN2)nc(-c2n[nH]c3ncccc23)c1 (centres unmarked) [Compound 20] | < 6.15 | < 6.15
21 | CC(C)CC(O)CNc1cccc(-c2n[nH]c3ncccc23)n1 (centres unmarked) [Compound 21] | < 6.15 | < 6.15

Row | Structure (SMILES) | pKi (PKC theta kinase) | pKi (PKC Delta)
22 | c1cc(NCC2CCNC2)nc(-c2n[nH]c3ncccc23)c1 (centres unmarked) [Compound 22] | > 6.30 | > 6.30
23 | c1cc(NCC2CCCCN2)nc(-c2n[nH]c3ncccc23)c1 (centres unmarked) [Compound 23] | > 5.55 | > 5.55
24 | NCC1CCC(CNc2ccc(C(F)(F)F)c(-c3n[nH]c4ncccc34)n2)CC1 (centres unmarked) [Compound 24] | > 6.30 | > 6.30
25 | CC(C)(CN)CNc1ccc(C(F)(F)F)c(-c2n[nH]c3ncccc23)n1 [Compound 33] | > 6.30 | > 6.30
26 | NCC1CCCC(CNc2ccc(C(F)(F)F)c(-c3n[nH]c4ncccc34)n2)C1 (centres unmarked) [Compound 34] | < 6.15 | < 6.15
27 | NC1CCC(Nc2ccc(C(F)(F)F)c(-c3n[nH]c4ncccc34)n2)CC1 (centres unmarked) [Compound 35] | < 6.15 | < 6.15
28 | NC(CNc1ccc(C(F)(F)F)c(-c2n[nH]c3ncccc23)n1)c1ccccc1 (centres unmarked) [Compound 36] | > 7.30 | > 7.30
29 | NC(COc1ccc(C(F)(F)F)c(-c2n[nH]c3ncccc23)n1)c1ccccc1 (centres unmarked) [Compound 37] | > 6.30 | > 6.30
30 | NC(=O)c1ccccc1Oc1ccc(C(F)(F)F)c(-c2n[nH]c3ncccc23)n1 [Compound 41] | < 6.15 | < 6.15
31 | N#CCCNc1ccc(C(F)(F)F)c(-c2n[nH]c3ncccc23)n1 [Compound 42] | < 6.15 | < 6.15
32 | CN(CC#N)c1ccc(C(F)(F)F)c(-c2n[nH]c3ncccc23)n1 [Compound 44] | > 6.30 | > 6.30
33 | OC1(CNc2ccc(C(F)(F)F)c(-c3n[nH]c4ncccc34)n2)CCCCC1 [Compound 47] | > 6.30 | > 6.30
34 | NCc1ccc(Nc2ccc(C(F)(F)F)c(-c3n[nH]c4ncccc34)n2)cc1 [Compound 48] | < 6.15 | < 6.15
35 | FC(F)(F)c1ccc(Nc2ccc3nc[nH]c3c2)nc1-c1n[nH]c2ncccc12 [Compound 49] | < 6.15 | < 6.15
36 | NC(=O)c1ccsc1Nc1ccc(C(F)(F)F)c(-c2n[nH]c3ncccc23)n1 [Compound 50] | < 6.15 | < 6.15
37 | CC(O)CNc1ccc(C(F)(F)F)c(-c2n[nH]c3ncccc23)n1 (centres unmarked) [Compound 53] | < 6.15 | < 6.15
38 | CN(CCO)c1ccc(C(F)(F)F)c(-c2n[nH]c3ncccc23)n1 [Compound 58] | < 6.15 | < 6.15
39 | FC(F)(F)c1ccc(NCCN2CCCC2)nc1-c1n[nH]c2ncccc12 [Compound 60] | < 6.15 | < 6.15
40 | NC1CCCC(Nc2cccc(-c3n[nH]c4ncccc34)n2)C1 (centres unmarked) [Compound 61] | > 7.30 | > 7.30
41 | Fc1ccc(NC2CNC2)nc1-c1n[nH]c2ncccc12 [Compound 64] | < 6.15 | < 6.15

Continued, values first:

Row | pKi (PKC theta kinase) | pKi (PKC Delta) | Structure (SMILES)
42 | > 6.30 | > 6.30 | NC1CCC(CNc2ccc(C(F)(F)F)c(-c3n[nH]c4ncccc34)n2)CC1 (centres unmarked) [Compound 25, N-((4-aminocyclohexyl)methyl)-6-(1H-pyrazolo[3,4-b]pyridin-3-yl)-5-(trifluoromethyl)pyridin-2-amine]
43 | < 6.15 | < 6.15 | FC(F)(F)c1ccc(NC2CCCNC2)nc1-c1n[nH]c2ncccc12 (centres unmarked) [Compound 26]
44 | < 6.15 | < 6.15 | FC(F)(F)c1ccc(NCC2CCNCC2)nc1-c1n[nH]c2ncccc12 [Compound 27]
45 | < 6.15 | < 6.15 | FC(F)(F)c1ccc(NCC2CCCN2)nc1-c1n[nH]c2ncccc12 (centres unmarked) [Compound 28]
46 | < 6.15 | < 6.15 | FC(F)(F)c1ccc(NCC2CCNC2)nc1-c1n[nH]c2ncccc12 (centres unmarked) [Compound 29]
47 | > 6.30 | > 6.30 | NC1CCCC(Nc2ccc(C(F)(F)F)c(-c3n[nH]c4ncccc34)n2)C1 (centres unmarked) [Compound 30]
48 | < 6.15 | < 6.15 | FC(F)(F)c1ccc(NCC2CCCNC2)nc1-c1n[nH]c2ncccc12 (centres unmarked) [Compound 31]
49 | < 6.15 | < 6.15 | FC(F)(F)c1ccc(NCC2CCCCN2)nc1-c1n[nH]c2ncccc12 (centres unmarked) [Compound 32]
50 | > 6.30 | > 6.30 | CC(C)C[C@H](N)COc1ccc(C(F)(F)F)c(-c2n[nH]c3ncccc23)n1 [Compound 38]
51 | < 6.15 | < 6.15 | CC(C)C[C@@H](N)COc1ccc(C(F)(F)F)c(-c2n[nH]c3ncccc23)n1 [Compound 39]
52 | > 5.55 | > 5.55 | FC(F)(F)c1ccc(NC2CCNCC2)nc1-c1n[nH]c2ncccc12 [Compound 40]
53 | < 6.15 | < 6.15 | FC(F)(F)c1ccc(OCCC2CCCCN2)nc1-c1n[nH]c2ncccc12 (centres unmarked) [Compound 43]
54 | < 6.15 | < 6.15 | N#CCCOc1ccc(C(F)(F)F)c(-c2n[nH]c3ncccc23)n1 [Compound 45]
55 | < 6.15 | < 6.15 | FC(F)(F)c1ccc(OCC2CCCNC2)nc1-c1n[nH]c2ncccc12 (centres unmarked) [Compound 46]
56 | < 6.15 | < 6.15 | FC(F)(F)c1ccc(OC[C@@H]2CCCN2)nc1-c1n[nH]c2ncccc12 [Compound 51]
57 | < 6.15 | < 6.15 | CN(C)C(C)(C)COc1ccc(C(F)(F)F)c(-c2n[nH]c3ncccc23)n1 [Compound 52]
58 | < 6.15 | < 6.15 | CC(C)(CN)COc1ccc(C(F)(F)F)c(-c2n[nH]c3ncccc23)n1 [Compound 54]
59 | < 6.15 | < 6.15 | CN1CCCC(COc2ccc(C(F)(F)F)c(-c3n[nH]c4ncccc34)n2)C1 (centres unmarked) [Compound 55]
60 | < 6.15 | < 6.15 | CCN1CCC(Oc2ccc(C(F)(F)F)c(-c3n[nH]c4ncccc34)n2)C1 (centres unmarked) [Compound 56]
61 | < 6.15 | < 6.15 | CC(N)(CO)COc1ccc(C(F)(F)F)c(-c2n[nH]c3ncccc23)n1 (centres unmarked) [Compound 57]
62 | < 6.15 | < 6.15 | NC1CCC(Oc2ccc(C(F)(F)F)c(-c3n[nH]c4ncccc34)n2)CC1 (centres unmarked) [Compound 59]
63 | < 6.15 | < 6.15 | N#CCNc1ccc(C(F)(F)F)c(-c2n[nH]c3ncccc23)n1 [Compound 62]
64 | < 6.15 | < 6.15 | FC(F)(F)c1ccc(NC2CNC2)nc1-c1n[nH]c2ncccc12 [Compound 63]
